Experimental data taken from ChEMBL document CHEMBL3885861, “Open TG-GATES”.

Organism: Rattus norvegicus
Test: Open TG-GATES - Regimen: Daily Repeat
Type: toxicity, organism-based, Sprague-Dawley
Design: regimen Daily Repeat, gender Male, age 6 weeks
Conditions: in vivo, po, 60 mg/kg, route gavage, dose level Middle; for APTT / Bas / Eos / Fbg / Hb / Ht / Lym / MCH / MCHC / MCV / Mono / Neu / PT / Plat / RBC / Ret / WBC: tissue Blood; for KIDNEY_L / KIDNEY_R / KIDNEY_TOTAL: tissue Kidney; for LIVER: tissue Liver; for A/G / ALP / ALT / AST / BUN / CRE / Ca / Cl / DBIL / GLC / IP / K / LDH / Na / PL / RALB / TBIL / TC / TG / TP / gamma-GTP: tissue Plasma

CCc1oc2ccccc2c1C(=O)c1cc(Br)c(O)c(Br)c1 [BENZBROMARONE]
TERMINAL_BW (72 h, time 3 day): 238.9 g
APTT (72 h, time 3 day): 16.6 s
Bas (72 h, time 3 day): 0%
Eos (72 h, time 3 day): 1%
Fbg (72 h, time 3 day): 234.4 mg/dL
Hb (72 h, time 3 day): 13.5 g/dL
Ht (72 h, time 3 day): 40%
Lym (72 h, time 3 day): 76.4%
MCH (72 h, time 3 day): 21.6 pg
MCHC (72 h, time 3 day): 33.8%
MCV (72 h, time 3 day): 63.7 fL
Mono (72 h, time 3 day): 7.2%
Neu (72 h, time 3 day): 15.8%
PT (72 h, time 3 day): 11.6 s
Plat (72 h, time 3 day): 109.3 x10_4/uL
RBC (72 h, time 3 day): 628.4 x10_4/ul
Ret (72 h, time 3 day): 7.7%
WBC (72 h, time 3 day): 107.1 x10_2/uL
KIDNEY_L (72 h, time 3 day): 1.1 g
KIDNEY_R (72 h, time 3 day): 1.1 g
KIDNEY_TOTAL (72 h, time 3 day): 2.1 g
LIVER (72 h, time 3 day): 14.3 g
A/G (72 h, time 3 day): 2
ALP (72 h, time 3 day): 793.8 IU/L
ALT (72 h, time 3 day): 33.6 IU/L
AST (72 h, time 3 day): 62.2 IU/L
BUN (72 h, time 3 day): 18 mg/dL
CRE (72 h, time 3 day): 0.6 mg/dL
Ca (72 h, time 3 day): 10.3 mg/dL
Cl (72 h, time 3 day): 106.2 meq/L
DBIL (72 h, time 3 day): 0.014 mg/dL
GLC (72 h, time 3 day): 190 mg/dL
IP (72 h, time 3 day): 7.8 mg/dL
K (72 h, time 3 day): 4.5 meq/L
LDH (72 h, time 3 day): 104.4 IU/L
Na (72 h, time 3 day): 140.2 meq/L
PL (72 h, time 3 day): 138 mg/dL
RALB (72 h, time 3 day): 4 g/dL
TBIL (72 h, time 3 day): 0.3 mg/dL
TC (72 h, time 3 day): 76.4 mg/dL
TG (72 h, time 3 day): 62.8 mg/dL
TP (72 h, time 3 day): 5.9 g/dL
gamma-GTP (72 h, time 3 day): 0.8 IU/L
TERMINAL_BW ([…], time 7 day): 264.4 g
TERMINAL_BW ([…], time 14 day): 327 g
TERMINAL_BW ([…], time 28 day): 383.7 g
APTT ([…], time 7 day): 17.8 s
Bas ([…], time 7 day): 0%
Eos ([…], time 7 day): 1.2%
Fbg ([…], time 7 day): 234.6 mg/dL
Hb ([…], time 7 day): 14.4 g/dL
Ht ([…], time 7 day): 42.8%
Lym ([…], time 7 day): 80.8%
MCH ([…], time 7 day): 21.3 pg
MCHC ([…], time 7 day): 33.7%
MCV ([…], time 7 day): 63.3 fL
Mono ([…], time 7 day): 6.4%
Neu ([…], time 7 day): 11%
PT ([…], time 7 day): 12.2 s
Plat ([…], time 7 day): 119.4 x10_4/uL
RBC ([…], time 7 day): 675.2 x10_4/ul
Ret ([…], time 7 day): 5.6%
WBC ([…], time 7 day): 106.8 x10_2/uL
APTT ([…], time 14 day): 17.5 s
Bas ([…], time 14 day): 0%
Eos ([…], time 14 day): 1%
Fbg ([…], time 14 day): 237 mg/dL
Hb ([…], time 14 day): 14.5 g/dL
Ht ([…], time 14 day): 43.2%
Lym ([…], time 14 day): 79.4%
MCH ([…], time 14 day): 21.1 pg
MCHC ([…], time 14 day): 33.5%
MCV ([…], time 14 day): 63.1 fL
Mono ([…], time 14 day): 7%
Neu ([…], time 14 day): 12.4%
PT ([…], time 14 day): 12.1 s
Plat ([…], time 14 day): 110.5 x10_4/uL
RBC ([…], time 14 day): 685.4 x10_4/ul
Ret ([…], time 14 day): 4.6%
WBC ([…], time 14 day): 129.3 x10_2/uL
APTT ([…], time 28 day): 18.4 s
Bas ([…], time 28 day): 0%
Eos ([…], time 28 day): 1.6%
Fbg ([…], time 28 day): 232.6 mg/dL
Hb ([…], time 28 day): 15.2 g/dL
Ht ([…], time 28 day): 45.8%
Lym ([…], time 28 day): 84.2%
MCH ([…], time 28 day): 19.3 pg
MCHC ([…], time 28 day): 33.1%
MCV ([…], time 28 day): 58.2 fL
Mono ([…], time 28 day): 6%
Neu ([…], time 28 day): 8.8%
PT ([…], time 28 day): 12.3 s
Plat ([…], time 28 day): 107.4 x10_4/uL
RBC ([…], time 28 day): 787.4 x10_4/ul
Ret ([…], time 28 day): 2.8%
WBC ([…], time 28 day): 139.8 x10_2/uL
KIDNEY_L ([…], time 7 day): 1.2 g
KIDNEY_R ([…], time 7 day): 1.2 g
KIDNEY_TOTAL ([…], time 7 day): 2.4 g
KIDNEY_L ([…], time 14 day): 1.4 g
KIDNEY_R ([…], time 14 day): 1.3 g
KIDNEY_TOTAL ([…], time 14 day): 2.7 g
KIDNEY_L ([…], time 28 day): 1.5 g
KIDNEY_R ([…], time 28 day): 1.5 g
KIDNEY_TOTAL ([…], time 28 day): 2.9 g
LIVER ([…], time 7 day): 16.1 g
LIVER ([…], time 14 day): 20.1 g
LIVER ([…], time 28 day): 21.5 g
A/G ([…], time 7 day): 2.4
ALP ([…], time 7 day): 869.6 IU/L
ALT ([…], time 7 day): 28 IU/L
AST ([…], time 7 day): 57 IU/L
BUN ([…], time 7 day): 20 mg/dL
CRE ([…], time 7 day): 0.6 mg/dL
Ca ([…], time 7 day): 10.5 mg/dL
Cl ([…], time 7 day): 107.4 meq/L
DBIL ([…], time 7 day): 0 mg/dL
GLC ([…], time 7 day): 186.8 mg/dL
IP ([…], time 7 day): 7.8 mg/dL
K ([…], time 7 day): 5 meq/L
LDH ([…], time 7 day): 96.2 IU/L
Na ([…], time 7 day): 139.7 meq/L
PL ([…], time 7 day): 154 mg/dL
RALB ([…], time 7 day): 4.4 g/dL
TBIL ([…], time 7 day): 0.3 mg/dL
TC ([…], time 7 day): 82.6 mg/dL
TG ([…], time 7 day): 80 mg/dL
TP ([…], time 7 day): 6.3 g/dL
gamma-GTP ([…], time 7 day): 0.2 IU/L
A/G ([…], time 14 day): 2.1
ALP ([…], time 14 day): 872.6 IU/L
ALT ([…], time 14 day): 29.4 IU/L
AST ([…], time 14 day): 57.8 IU/L
BUN ([…], time 14 day): 20.2 mg/dL
CRE ([…], time 14 day): 0.6 mg/dL
Ca ([…], time 14 day): 10.5 mg/dL
Cl ([…], time 14 day): 106.3 meq/L
DBIL ([…], time 14 day): 0.01 mg/dL
GLC ([…], time 14 day): 191.4 mg/dL
IP ([…], time 14 day): 7.6 mg/dL
K ([…], time 14 day): 4.7 meq/L
LDH ([…], time 14 day): 97.4 IU/L
Na ([…], time 14 day): 140.3 meq/L
PL ([…], time 14 day): 156.4 mg/dL
RALB ([…], time 14 day): 4.5 g/dL
TBIL ([…], time 14 day): 0.3 mg/dL
TC ([…], time 14 day): 85.6 mg/dL
TG ([…], time 14 day): 85.8 mg/dL
TP ([…], time 14 day): 6.6 g/dL
gamma-GTP ([…], time 14 day): 0.8 IU/L
A/G ([…], time 28 day): 1.9
ALP ([…], time 28 day): 605.2 IU/L
ALT ([…], time 28 day): 34 IU/L
AST ([…], time 28 day): 54 IU/L
BUN ([…], time 28 day): 19.2 mg/dL
CRE ([…], time 28 day): 0.6 mg/dL
Ca ([…], time 28 day): 9.9 mg/dL
Cl ([…], time 28 day): 108.4 meq/L
DBIL ([…], time 28 day): 0.016 mg/dL
GLC ([…], time 28 day): 185.2 mg/dL
IP ([…], time 28 day): 6.9 mg/dL
K ([…], time 28 day): 4.5 meq/L
LDH ([…], time 28 day): 147.4 IU/L
Na ([…], time 28 day): 141 meq/L
PL ([…], time 28 day): 144.6 mg/dL
RALB ([…], time 28 day): 4.3 g/dL
TBIL ([…], time 28 day): 0.2 mg/dL
TC ([…], time 28 day): 84.4 mg/dL
TG ([…], time 28 day): 75.4 mg/dL
TP ([…], time 28 day): 6.6 g/dL
gamma-GTP ([…], time 28 day): 1 IU/L
